Experimental findings from ChEMBL document CHEMBL3714769, “Heterocyclic compounds for the inhibition of pask” (2014) are described below.

This assay has as its target PAS domain-containing serine/threonine-protein kinase (Homo sapiens, UniProt Q96RG2). The assay is described as follows: Inhibition of human recombinant PASK using Ulight-peptide substrate incubated for 2 hrs by TR-FRET assay. In general terms: In TR-FRET formats the signal depends on donor and acceptor labels being close together.

Chain of PAS domain-containing serine/threonine-protein kinase (Q96RG2 whole entry, the tested form may be a part): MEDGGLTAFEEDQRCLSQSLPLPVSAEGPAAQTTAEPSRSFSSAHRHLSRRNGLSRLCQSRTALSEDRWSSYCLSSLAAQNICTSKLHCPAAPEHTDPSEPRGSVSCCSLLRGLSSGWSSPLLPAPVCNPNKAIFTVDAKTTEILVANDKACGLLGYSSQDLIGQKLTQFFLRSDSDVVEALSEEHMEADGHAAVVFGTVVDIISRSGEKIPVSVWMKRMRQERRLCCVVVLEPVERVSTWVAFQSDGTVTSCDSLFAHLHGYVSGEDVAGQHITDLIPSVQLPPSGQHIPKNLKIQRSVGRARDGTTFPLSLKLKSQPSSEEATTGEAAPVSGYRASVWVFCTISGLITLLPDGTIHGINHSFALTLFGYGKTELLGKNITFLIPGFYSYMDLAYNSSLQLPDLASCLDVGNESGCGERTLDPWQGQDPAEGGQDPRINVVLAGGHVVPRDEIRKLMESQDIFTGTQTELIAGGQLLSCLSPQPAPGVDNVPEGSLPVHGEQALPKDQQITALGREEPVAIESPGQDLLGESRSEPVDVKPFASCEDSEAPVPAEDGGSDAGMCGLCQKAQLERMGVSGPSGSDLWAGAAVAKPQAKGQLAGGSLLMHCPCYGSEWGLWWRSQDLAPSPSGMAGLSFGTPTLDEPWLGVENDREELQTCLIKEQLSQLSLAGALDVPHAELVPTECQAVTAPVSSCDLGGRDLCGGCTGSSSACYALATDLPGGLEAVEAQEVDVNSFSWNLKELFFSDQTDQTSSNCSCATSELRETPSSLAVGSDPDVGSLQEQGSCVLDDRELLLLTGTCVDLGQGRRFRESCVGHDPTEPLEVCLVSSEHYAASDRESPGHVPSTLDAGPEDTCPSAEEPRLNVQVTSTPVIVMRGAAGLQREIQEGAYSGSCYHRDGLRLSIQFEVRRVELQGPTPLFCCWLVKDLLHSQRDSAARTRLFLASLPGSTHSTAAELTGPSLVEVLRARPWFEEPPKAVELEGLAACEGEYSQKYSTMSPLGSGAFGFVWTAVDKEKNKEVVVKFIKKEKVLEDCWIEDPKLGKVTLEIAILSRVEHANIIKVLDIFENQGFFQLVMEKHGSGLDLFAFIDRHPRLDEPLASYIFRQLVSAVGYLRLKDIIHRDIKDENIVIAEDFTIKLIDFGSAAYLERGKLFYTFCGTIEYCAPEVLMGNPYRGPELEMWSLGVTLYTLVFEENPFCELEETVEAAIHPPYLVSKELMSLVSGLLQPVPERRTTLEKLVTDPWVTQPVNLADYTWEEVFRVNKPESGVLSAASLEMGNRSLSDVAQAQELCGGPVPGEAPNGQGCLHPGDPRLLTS

For the compound `COc1cc(-c2cc(=O)n3nc(-c4ccc(F)cc4)nc3[nH]2)ccc1Cl`, the IC50 was no more than 10 µM.
Consider `O=c1cc(-c2ccc3[nH]nnc3c2)[nH]c2nc(-c3ccc(Cl)c(Cl)c3)nn12`, for which the IC50 was no more than 10 µM.

As usually defined, the IC50 is the midpoint of a concentration-inhibition curve.
